Test results taken from patent US8076315B2, “Pharmacological treatments for sleep disorders (apnoe) with prostanoid receptor antagonists” (The Board of Trustees of the University of Illinois, priority 2005, dated 2011).

How the values were obtained:
[1] = system: spontaneous sleep apnea in the rat; assay: spontaneous sleep apnea model in the rat (plethysmography with EEG/EMG recording); format: in vivo; settings: for efficacy against sleep apnea (rate of apneas per hour of NREM and REM sleep, 6 hours of polygraphic recording): systemic injection 15 min before recording, Example 2, described as results that can be obtained
Experimental: Adult, male Sprague-Dawley rats (obtained from Sasco-King, Wilmington, Mass.; usually 8 per test group; average weight=300 g) are maintained on a 12-hour light (08:00-20:00 hour)/12-hour dark (20:00-08:00 hour) cycle for one week, housed in individual cages and given ad libitum access to food and water. Following the one week of acclimatization, animals are subjected to the following surgical procedures.
Acclimatized animals are anesthetized using a mixture of ketamine […] and xylazine (5 mg/kg) at a volume of 1 ml/kg body weight for the implantation of cortical electrodes for electroencephalogram (EEG) recording and neck muscle electrodes for electromyogram (EMG) recording. The surface of the skull is exposed surgically and cleaned with a 20% solution of hydrogen peroxide followed by a solution of 95% isopropyl alcohol. Next, a dental preparation of sodium fluoride (Flura-GEL®, Saslow Dental, Mt. Prospect, Ill.) is applied to harden the skull above the parietal cortex and allowed to remain in place for 5 minutes. The fluoride mixture is then removed from the skull above the parietal cortex. The EEG electrodes consisting of four stainless steel machine screws, having leads attached thereto, are threaded into the skull to rest on the dura over the parietal cortex. A thin layer of Justi® resin cement (Saslow Dental, Mt. Prospect, Ill.) is applied to cover the screw heads (of screws implanted in the skull) and surrounding skull to further promote the adhesion of the implant. EMG electrodes consisting of two ball-shaped wires are inserted into the bilateral neck musculature. All leads (i.e., EEG and EMG leads) are soldered to a miniature connector (39F1401, Newark Electronics, Schaumburg, Ill.). Lastly, the entire assembly is fixed to the skull with dental cement.
After surgery, all animals are allowed to recover for one week before being recorded for sleep and breathing.
Physiological parameters (see below) from each animal prepared as set forth in Example 1 are recorded on 2 occasions in random order, with recordings for an individual animal separated by at least 3 days. Fifteen minutes prior to each recording an animal receives a systemic injection (1 ml/kg intraperitoneal bolus) of either saline (control) or an active dose of a drug treatment.
Respiration is recorded by placing each animal, unrestrained, inside a single chamber plethysmograph (PLYUN1R/U; Buxco Electronics, Sharon, Conn.; dimension 6 in. ×10 in.×6 in.) ventilated with a bias flow of fresh room air at a rate of 2 L/min. A cable plugged onto the animal's connector and passed through a sealed port is used to collect the bioelectrical activity from the head implant.
Sleep and waking states are assessed using software developed by Benington et al. (1994, Sleep 17: 28-36) to analyze the biparietal EEG and nuchal EMG signals on 10-second epochs. This software discriminates wakefulness (W) as a high frequency low amplitude EEG with a concomitant high EMG tone, NREM sleep by increased spindle and […] together with decreased EMG tone, and REM sleep by a low ratio of a delta to theta activity and an absence of EMG tone. Sleep efficiency is measured as the percentage of total recorded epochs staged as NREM or REM sleep.
An accepted physiological animal model of spontaneous sleep apnea in the rat (see Radulovacki & Carley, 2002, in SLEEP-RELATED BREATHING DISORDERS: EXPERIMENTAL MODELS AND THERAPEUTIC POTENTIAL, (Carley & Radulovacki, eds.), Marcel Dekker: New York, pp. 3-16) is used to assess the effects of test drugs. More specifically, sleep apneas, defined as cessation of respiratory effort for at least 2.5 seconds, are scored for each recording session and associated with the stage of sleep in which they occur (i.e., NREM or REM sleep). The duration requirement of 2.5 seconds represents at least 2 “missed” breaths, which is therefore analogous to a 10 second apnea duration requirement in humans, which also reflects 2-3 missed breaths. […]

[2] = system: sleep apnea in OSAS patients; settings: cited from earlier work
[3] = system: central apneas during all sleep stages; settings: rats with frequent central apneas; cited from earlier work

Compound | efficacy against sleep apnea (rate of apneas per hour of NREM and REM sleep, 6 hours of polygraphic recording) [1] | apnea frequency [3] | other results
CCCCCNC(=O)c1coc([C@H]2[C@@H](Cc3ccccc3CCC(=O)O)[C@@H]3CC[C@H]2O3)n1 [Ifetroban] | dose-dependent efficacy |  | 
O=C1CC2(CCCC2)CC(=O)N1CCCCN1CCN(c2ncccn2)CC1 [Buspirone] |  |  | patients with reduced apnea index ([2]; patients with sleep apnea syndrome (Mendelson et al., 1991)): 4 of 5
diphloretin phosphate | dose-dependent efficacy |  | 
CC(=O)NNC(=O)N1Cc2ccccc2Oc2ccc(Cl)cc21 [SC19220] |  |  | animals in which apnea was eliminated throughout the 6-hour recording ([1]; intraperitoneal injection, 0.005 mg/kg, 4 test animals): 2 of 4; average reduction of apnea frequency with respect to placebo (DMSO) control injection ([1]; intraperitoneal injection, 0.005 mg/kg, 4 test animals, 6-hour recording): 64%
polyphloretin phosphate | dose-dependent efficacy |  | 
O=C(O)CCn1c2c(c3ccccc31)C[C@H](NS(=O)(=O)c1ccc(F)cc1)CC2 [ramatroban] | dose-dependent efficacy |  | 
COc1cc(N)c(Cl)cc1C(=O)N[C@H]1CN2CCC1CC2 [R-zacopride] |  | reduce apnea frequency | 
CN1CCN2c3ncccc3Cc3ccccc3C2C1 (stereo not drawn) [mirtazapine] |  | reduce apnea frequency | reduction of apnea frequency ([2]; one study of OSAS patients): 50%
Cc1nccn1CC1CCc2c(c3ccccc3n2C)C1=O (stereo not drawn) [ondansetron] |  | reduce apnea frequency | effect on sleep apnea ([2]; another study of OSAS patients): failed to demonstrate any effect
